Measured values taken from ChEMBL document CHEMBL3120136 (J Med Chem, 2014).
Where a SMILES comes first, the peptide text is derived from it. [ ]: non-standard residue; d: D form. The star is where a group is joined. Ac3c(1R,2S-2-vinyl) = C=C[C@@H]1C[C@]1(N)C(=O)O; Hyp = O=C(O)[C@@H]1C[C@@H](O)CN1; Chg = N[C@H](C(=O)O)C1CCCCC1; Carbamoyl = NC(=O)*

Key:
Hepatitis C virus = assay: Antiviral activity against Hepatitis C virus infected in human HuH7 cells assessed as inhibition of HCV subgenomic replicon replication after 72 hrs by ELISA; assay type: functional, organism-based, Hepacivirus hominis, Huh-7
[1] = Inhibition of Hepatitis C virus full-length NS3/4A protease assessed as quenched-fluorogenic RET-S1 substrate cleavage incubated for 10 mins prior to substrate addition by FRET analysis; set-up: species or system Hepacivirus hominis
[2] = Hepatitis C virus, Huh-7, 72 h, read-out: EC50

SMILES | EC50 (Hepatitis C virus; [2]) [µM] | IC50 [1] [µM] | EC50 (Hepatitis C virus; huh-7)
O=C(CCC(F)(F)F)N[C@H]1CCCCC/C=C\[C@@H]2C[C@@]2(C(=O)NS(=O)(=O)C2CC2)NC(=O)[C@@H]2C[C@@H](OC(=O)N3Cc4ccccc4C3)CN2C1=O | 0.048 | 0.0006 | 
CN(C)c1ccc(S(=O)(=O)NC(=O)[C@@]23C[C@H]2/C=C\CCCCC[C@H](NC(=O)OC(C)(C)C)C(=O)N2C[C@H](OC(=O)N4Cc5ccccc5C4)C[C@H]2C(=O)N3)cc1 | 0.045 | 0.011 | 
CC(C)(C)OC(=O)N[C@H]1CCCCC/C=C\[C@@H]2C[C@@]2(C(=O)NS(=O)(=O)C2(C)CC2)NC(=O)[C@@H]2C[C@@H](OC(=O)N3Cc4ccccc4C3)CN2C1=O | 0.0031 | 0.0005 | 
CC(C)(C)OC(=O)N[C@H]1CCCOCCC[C@@H]2C[C@@]2(C(=O)NS(=O)(=O)C2CC2)NC(=O)[C@@H]2C[C@@H](OC(=O)N3Cc4cccc(F)c4C3)CN2C1=O | 0.254 | 0.001 | 
CC(C)(C)OC(=O)N[C@H]1CCCCC/C=C\[C@@H]2C[C@@]2(C(=O)NS(=O)(=O)C2CC2)NC(=O)[C@@H]2C[C@@H](Nc3nc4ccccc4o3)CN2C1=O | 0.73 | 0.021 | 
CC(C)(C)OC(=O)N[C@H]1CCOCC/C=C\[C@@H]2C[C@@]2(C(=O)NS(=O)(=O)C2CC2)NC(=O)[C@@H]2C[C@@H](OC(=O)N3Cc4cccc(F)c4C3)CN2C1=O | 0.033 | 0.0012 | 
CC(C)(C)OC(=O)N[C@H]1CCCCCCC[C@@H]2C[C@@]2(C(=O)NS(=O)(=O)C2CC2)NC(=O)[C@@H]2C[C@@H](OC(=O)N3Cc4cccc(F)c4C3)CN2C1=O | 0.0058 | 0.0007 | 
CC(C)(C)OC(=O)N[C@H]1CCCCC/C=C\[C@@H]2C[C@@]2(C(=O)NS(=O)(=O)C2CC2)NC(=O)[C@@H]2C[C@@H](OC(=O)N3CCc4cccc(Cl)c4C3)CN2C1=O | 0.043 | 0.0021 | 
N[C@H]1CCCCC/C=C\[C@@H]2C[C@@]2(C(=O)NS(=O)(=O)C2CC2)NC(=O)[C@@H]2C[C@@H](OC(=O)N3Cc4cccc(F)c4C3)CN2C1=O | 3.05 | 0.02 | 
O=C(N[C@H]1CCCCC/C=C\[C@@H]2C[C@@]2(C(=O)NS(=O)(=O)C2CC2)NC(=O)[C@@H]2C[C@@H](OC(=O)N3CCc4ccccc4C3)CN2C1=O)OC1CCCC1 | 0.006 | 0.001 | 
CC(C)(C)OC(=O)N[C@H]1CCCCC/C=C\[C@@H]2C[C@@]2(C(=O)NS(=O)(=O)C2CC2)NC(=O)[C@@H]2C[C@@H](OC(=O)N3CCc4ccc(Cl)cc4C3)CN2C1=O | 0.065 | 0.0041 | 
O=C(NC1CCCC1)N[C@H]1CCCCC/C=C\[C@@H]2C[C@@]2(C(=O)NS(=O)(=O)C2CC2)NC(=O)[C@@H]2C[C@@H](OC(=O)N3Cc4ccccc4C3)CN2C1=O | 0.026 | 0.0007 | 
CC(C)(C)OC(=O)N[C@H]1CCCCC/C=C\[C@@H]2C[C@@]2(C(=O)O)NC(=O)[C@@H]2C[C@@H](OC(=O)N3Cc4ccc(Cl)cc4C3)CN2C1=O | 3.16 | 0.11 | 
CCCC1(S(=O)(=O)NC(=O)[C@@]23C[C@H]2/C=C\CCCCC[C@H](NC(=O)OC(C)(C)C)C(=O)N2C[C@H](OC(=O)N4Cc5ccccc5C4)C[C@H]2C(=O)N3)CC1 | 0.005 | 0.003 | 
CC(C)(C)OC(=O)N[C@H]1CCCCC/C=C\[C@@H]2C[C@@]2(C(=O)NS(=O)(=O)C2CC2)NC(=O)[C@@H]2C[C@@H](NC(=S)N3CCc4ccccc4C3)CN2C1=O | 0.365 | 0.0082 | 
CN1CC/C=C\[C@@H]2C[C@@]2(C(=O)NS(=O)(=O)C2CC2)NC(=O)[C@@H]2C[C@@H](OC(=O)N3Cc4cccc(F)c4C3)CN2C(=O)[C@@H](NC(=O)OC(C)(C)C)CC1 | 0.837 | 0.007 | 
CC(C)(C)OC(=O)N[C@H]1CCCCC/C=C\[C@@H]2C[C@@]2(C(=O)NS(=O)(=O)C2CC2)NC(=O)[C@@H]2C[C@@H](OC(=O)N3Cc4cccc(C(F)(F)F)c4C3)CN2C1=O | 0.029 | 0.0012 | 
CC(C)(C)OC(=O)N[C@H]1CCCCC/C=C\[C@@H]2C[C@@]2(C(=O)NS(=O)(=O)C2CC2)NC(=O)[C@@H]2C[C@@H](NC(=O)c3sc4cccc(Cl)c4c3Cl)CN2C1=O | 0.0095 | 0.0014 | 
CN1CCN(S(=O)(=O)NC(=O)[C@@]23C[C@H]2/C=C\CCCCC[C@H](NC(=O)OC(C)(C)C)C(=O)N2C[C@H](OC(=O)N4Cc5ccccc5C4)C[C@H]2C(=O)N3)CC1 | 0.046 | 0.017 | 
CC(C)(C)OC(=O)N[C@H]1CCCCC/C=C\[C@@H]2C[C@@]2(C(=O)NS(=O)(=O)C2CC2)NC(=O)[C@@H]2C[C@@H](OC(=O)N3Cc4ccc(N5CCOCC5)cc4C3)CN2C1=O | 0.045 | 0.0008 | 
CC(C)(C)OC(=O)N[C@H]1CCCCC/C=C\[C@@H]2C[C@@]2(C(=O)NS(=O)(=O)C2CC2)NC(=O)[C@@H]2C[C@@H](O)CN2C1=O | 2.13 | 0.075 | 

SMILES | EC50 (Hepatitis C virus; [2]) [µM] | IC50 [1] [µM] | EC50 (Hepatitis C virus; huh-7)
CC(C)(C)OC(=O)N[C@H]1CCCCC/C=C\[C@@H]2C[C@@]2(C(=O)O)NC(=O)[C@@H]2C[C@@H](O)CN2C1=O |  | > 50 | Not Active
C=C[C@@H]1C[C@]1(NC(=O)[C@@H]1C[C@@H](OC(N)=O)CN1C(=O)[C@@H](NC(=O)[C@@H](NC(C)=O)C1CCCCC1)C(C)C)C(=O)O (Ac-[Chg]V[Hyp](Carbamoyl)[Ac3c(1R,2S-2-vinyl)]-OH) | > 10 | 0.2 | 
CC(C)(C)OC(=O)N[C@H]1CCCCC/C=C\[C@@H]2C[C@@]2(C(=O)NS(=O)(=O)C2CC2)NC(=O)[C@@H]2C[C@@H](OC(=O)N3Cc4ccccc4C(C)(C)C3)CN2C1=O | 0.0077 | 0.0008 | 
CC(C)(C)OC(=O)N[C@H]1CCOCCCC[C@@H]2C[C@@]2(C(=O)NS(=O)(=O)C2CC2)NC(=O)[C@@H]2C[C@@H](OC(=O)N3Cc4cccc(F)c4C3)CN2C1=O | 0.019 | 0.0007 | 
CC(C)N(C(C)C)S(=O)(=O)NC(=O)[C@@]12C[C@H]1/C=C\CCCCC[C@H](NC(=O)OC(C)(C)C)C(=O)N1C[C@H](OC(=O)N3Cc4ccccc4C3)C[C@H]1C(=O)N2 | 0.139 | 0.07 | 
CC(C)(C)OC(=O)N[C@H]1CCCCC/C=C\[C@@H]2C[C@@]2(C(=O)NS(=O)(=O)C2CC2)NC(=O)[C@@H]2C[C@@H](OC(=O)N3Cc4ccccc4C(O)C3)CN2C1=O (some centres undefined) | 0.718 | 0.0022 | 
CC(C)(C)OC(=O)N[C@H]1CCCCC/C=C\[C@@H]2C[C@@]2(C(=O)NS(=O)(=O)C2CC2)NC(=O)[C@@H]2C[C@@H](NC(=O)N3CCc4ccccc4C3)CN2C1=O | 0.362 | 0.0029 | 
CC(C)(C)OC(=O)N[C@H]1CCCCC/C=C\[C@@H]2C[C@@]2(C(=O)NS(C)(=O)=O)NC(=O)[C@@H]2C[C@@H](OC(=O)N3Cc4ccccc4C3)CN2C1=O | 0.156 | 0.0066 | 
CC(C)(C)OC(=O)N[C@H]1CCCCC/C=C\[C@@H]2C[C@@]2(C(=O)NS(=O)(=O)Nc2ccccc2)NC(=O)[C@@H]2C[C@@H](OC(=O)N3Cc4ccccc4C3)CN2C1=O | 0.03 | 0.0022 | 
CC(C)(C)OC(=O)N[C@H]1CCCCC/C=C\[C@@H]2C[C@@]2(C(=O)NS(=O)(=O)c2ccc(Cl)s2)NC(=O)[C@@H]2C[C@@H](OC(=O)N3Cc4ccccc4C3)CN2C1=O | 0.111 | 0.0046 | 
CC(C)(C)OC(=O)N[C@H]1CCCCCC[C@@H]2C[C@@]2(C(=O)NS(=O)(=O)C2CC2)NC(=O)[C@@H]2C[C@@H](OC(=O)N3Cc4cccc(F)c4C3)CN2C1=O | 0.0225 | 0.0015 | 
CC(C)(C)OC(=O)N[C@H]1CCCCC/C=C\[C@@H]2C[C@@]2(C(=O)NS(=O)(=O)NC2CC2)NC(=O)[C@@H]2C[C@@H](OC(=O)N3Cc4ccccc4C3)CN2C1=O | 0.032 | 0.0042 | 
O=C(N[C@H]1CCCCC/C=C\[C@@H]2C[C@@]2(C(=O)NS(=O)(=O)C2CC2)NC(=O)[C@@H]2C[C@@H](OC(=O)N3Cc4ccccc4C3)CN2C1=O)O[C@@H]1CCOC1 | 0.107 | 0.0028 | 
CC(C)(C)OC(=O)N[C@H]1CCCCC/C=C\[C@@H]2C[C@@]2(C(=O)NS(=O)(=O)c2cccs2)NC(=O)[C@@H]2C[C@@H](OC(=O)N3Cc4ccccc4C3)CN2C1=O | 0.027 | 0.0025 | 
CC(C)(C)OC(=O)N[C@H]1CCCCC/C=C\[C@@H]2C[C@@]2(C(=O)O)NC(=O)[C@@H]2C[C@@H](OC(=O)N3Cc4cc(Cl)c(Cl)cc4C3)CN2C1=O | 25 | 0.483 | 
N[C@H]1CCCCC/C=C\[C@@H]2C[C@@]2(C(=O)NS(=O)(=O)C2CC2)NC(=O)[C@@H]2C[C@@H](OC(=O)N3Cc4cccc(Cl)c4C3)CN2C1=O | 0.15 | 0.003 | 
CC(C)(C)OC(=O)N[C@H]1CCCCC/C=C\[C@@H]2C[C@@]2(C(=O)NS(=O)(=O)C2CC2)NC(=O)[C@@H]2C[C@@H](OC(=O)N3Cc4ccc(N)cc4C3)CN2C1=O | 0.042 | 0.0015 | 
COc1ccc(NS(=O)(=O)NC(=O)[C@@]23C[C@H]2/C=C\CCCCC[C@H](NC(=O)OC(C)(C)C)C(=O)N2C[C@H](OC(=O)N4Cc5ccccc5C4)C[C@H]2C(=O)N3)cc1 | 0.184 | 0.011 | 
CC(C)(C)OC(=O)N[C@H]1CCCCC/C=C\[C@@H]2C[C@@]2(C(=O)NS(=O)(=O)C2CC2)NC(=O)[C@@H]2C[C@@H](OC(=O)N3Cc4cc(Cl)c(Cl)cc4C3)CN2C1=O | 0.024 | 0.001 | 
CC(C)(C)OC(=O)N[C@H]1CCCCC/C=C\[C@@H]2C[C@@]2(C(=O)NS(=O)(=O)C(F)(F)F)NC(=O)[C@@H]2C[C@@H](OC(=O)N3Cc4ccccc4C3)CN2C1=O | 0.166 | 0.0048 | 
CC(C)(C)NC(=O)N[C@H]1CCCCC/C=C\[C@@H]2C[C@@]2(C(=O)NS(=O)(=O)C2CC2)NC(=O)[C@@H]2C[C@@H](OC(=O)N3Cc4ccccc4C3)CN2C1=O | 0.038 | 0.0024 | 
